Read-outs that look alike come from different tables or passages of the source.
Assay: Second sacrificial agent testing protocol: paste air measurements with DDBS (0.0125 wt %) and rating; on Overall performance rating (second protocol rating): key: 0: Fail; 1: Poor; 2: Good; 3: Preferred; 4: Most preferred; on SA Rating (0-4): key: 0: Fail; 1: Poor; 2: Good; 3: Preferred; 4: Most preferred
Experimental: The second sacrificial agents evaluation protocol has been designed to assess the relative potential value of candidate sacrificial agents with a maximum of five paste air measurements.
The first two measurements (of entrained air) are carried out with a standard AEA in a portland cement paste and in a FA:cement paste; these two tests provide reference values which can be used for the relative assessment of a series of sacrificial agents. The other three paste air measurements pertain to the properties and effectiveness of the sacrificial agents.
1. Measurement of the air entrained by a standard air-entraining admixture in a cement paste of fixed composition and fluidity; the latter is a reference system which provides ‘reference’ air entrainment values (‘A’ in FIG. 8).
2. […] The difference between ‘B’ and ‘A’ in FIG. 8 is the reduction in air entrainment due to the presence of the fly ash; this is illustrated as ‘C’ in FIG. 8.
In the present SA testing and evaluation protocol, the fly ash selected should remain the same for the entire set of additives tested, in order to provide reliable relative performance ranking. For the present series of test, the Fly Ash selected was the one identified as B1 in Table 1 below; the physico-chemical properties of this fly ash are reported in Table 1.
In testing for the relative performance of the sacrificial agent, the sacrificial agent dosage was chosen in the range 0-0.1 wt %, which corresponds to typical dosage values observed in paste, mortar and concrete tests reported in Tables 2, 3 and 4 and Tables 7 to 34.
3. Measurement of the air entrainment of the SA, by itself, in a cement-only paste at a dosage of 0.1 wt %; this is illustrated as ‘D’ in FIG. 8.
4. Measurement of the air entrained by DDBS in the FA-cement paste comprising 0.05% wt SA, under the same conditions as described in 2 above. The air entrainment value observed in this system, compared to that observed in the absence of the SA, yields the air recovery due to the SA, and is illustrated schematically as ‘E’ in FIG. 8.
5. Same as in 4 above, but with a higher SA concentration at 0.1 wt %; the air entrainment observed, again compared to the value observed in the absence of the SA, yields a second value of air recovery by the SA and is illustrated as ‘F’ in FIG. 8.
For the relative performance rating of the group of products chosen as potential SA and listed in Table 36, the following rating scheme (Tables A and B) was adopted (referring to FIG. 8 and quantities defined therein):
1: Chemical name of compound tested as potential sacrificial agent • Col. 2: Level of air entrainment by the candidate sacrificial agent, at a concentration of 0.1 wt %, in a Portland cement paste ([…]) • Col. […] 5: Sacrificial agent overall rating index (described below) • Col. 6: Hydrophilic-Lipophilic Balance (HLB) values of candidate sacrificial agent (source and significance of HLB data given below) • Col. 7: Logarithm of the Oil(octanol)/water partition coefficient (Kow) of the candidate sacrificial agents (source and significance of data given below).

[1] = Portland cement paste (PCA), […]
[2] = sacrificial agent overall rating index
[3] = B1 FA/cement paste, 0.0125 wt % DDBS, 0.05 wt % SA
[4] = B1 FA/cement paste, 0.0125 wt % DDBS, 0.10 wt % SA
[5] = sum of ratings of air entrainment recovery by 0.05% and 0.1% SA, DDBS 0.0125 wt %, 50:50 B1 fly ash:cement paste

Molecule | B1 + 0.0125% DDBS + 0.05% SA (air entrainment) (B1 FA/cement paste, […]) | B1 + 0.0125% DDBS + 0.1% SA (air entrainment) (B1 FA/cement paste, […]) | PCA + 0.1% SA (level of air entrainment by the candidate sacrificial agent) [1] | SA Rating (0-4) [2] | B1 + 0.0125% DDBS + 0.1% SA (air entrainment) [4] | other results
Cl.NCC(N)C(=O)O (stereo not drawn) | 1.7 | 1.9 | 0.3 | 0 | – | –
Nc1c(O)cc(S(=O)(=O)[O-])c2ccccc12.[Na+] | – | – | 0.4 | 0 | 2.9 | B1 + 0.0125% DDBS + 0.05% SA (air entrainment) [3]: 3.1
O=S(=O)([O-])c1cc(O)c2c(O)cc(S(=O)(=O)[O-])cc2c1.[Na+].[Na+] | 2.0 | 2.5 | 0.0 | 0 | – | –
1-Octanol | – | – | 0.0 | 0 | 1.4 | B1 + 0.0125% DDBS + 0.05% SA (air entrainment) [3]: 2.1
CCCCO [1-Butanol] | – | – | – | – | – | B1 + 0.0125% DDBS + 0.05% SA (air entrainment): 5.9; B1 + 0.0125% DDBS + 0.1% SA (air entrainment): 6.5; Overall performance rating (second protocol rating): 4; PCA + 0.1% SA (level of air entrainment by the candidate sacrificial agent): 1.2; SA Rating (0-4): 4
CCCCCCCCCCO [1-Decanol] | 2.1 | 1.7 | 0.0 | 0 | – | –
CCN1CCCC1=O [1-Ethyl-2-Pyrrolidinone] | 4.3 | 5.6 | 2.5 | 3 | – | Overall performance rating (second protocol rating): 3
CN1CCCC1=O [1-Methyl-2-Pyrrolidinone] | – | – | 1.9 | 0 | 3.8 | B1 + 0.0125% DDBS + 0.05% SA (air entrainment) [3]: 3.6
CCCCCO [1-Pentanol] | 4.9 | 4.7 | 0.9 | 3 | – | Overall performance rating (second protocol rating): 3
CC(O)C(C)O (stereo not drawn) [2,3-Butanediol] | 3.6 | 3.7 | 1.2 | 0 | – | –
O=C(O)c1cc(O)ccc1O [2,5-Dihydroxybenzoic acid] | 1.9 | 1.6 | 0.0 | 0 | – | –
O=S(=O)([O-])c1ccc2cc(S(=O)(=O)[O-])ccc2c1.[Na+].[Na+] [2,6-naphthalene disulfonate Na] | – | – | – | – | – | B1 + 0.0125% DDBS + 0.05% SA (air entrainment): 2.3; B1 + 0.0125% DDBS + 0.1% SA (air entrainment): 3.0; PCA + 0.1% SA (level of air entrainment by the candidate sacrificial agent): 0.0; SA Rating (0-4): 0
NCCOCCO [2-(2-Aminoethoxy)ethanol] | – | – | 0.5 | 1 | 3.9 | B1 + 0.0125% DDBS + 0.05% SA (air entrainment) [3]: 3.1; Overall performance rating (second protocol rating) [5]: 1
CCC(C)O (stereo not drawn) [2-Butanol] | – | – | – | – | – | B1 + 0.0125% DDBS + 0.05% SA (air entrainment): 6.0; B1 + 0.0125% DDBS + 0.1% SA (air entrainment): 6.6; Overall performance rating (second protocol rating): 4; PCA + 0.1% SA (level of air entrainment by the candidate sacrificial agent): 1.4; SA Rating (0-4): 4
CCC(C)=O [2-Butanone (Methyl ethyl ketone)] | 3.7 | 4.1 | 0.3 | 1 | – | –
CCC(C)=O [2-Butanone] | – | – | – | – | – | Overall performance rating (second protocol rating): 1
O=C(O)c1ccc2ccccc2c1 [2-Naphthoic acid] | – | – | 1.3 | 1 | 4.2 | B1 + 0.0125% DDBS + 0.05% SA (air entrainment) [3]: 3.2; Overall performance rating (second protocol rating) [5]: 1

Molecule | B1 + 0.0125% DDBS + 0.05% SA (air entrainment) (B1 FA/cement paste, […]) | B1 + 0.0125% DDBS + 0.1% SA (air entrainment) (B1 FA/cement paste, […]) | PCA + 0.1% SA (level of air entrainment by the candidate sacrificial agent) [1] | SA Rating (0-4) [2] | B1 + 0.0125% DDBS + 0.1% SA (air entrainment) [4] | other results
CCC(O)CC [3-Pentanol] | – | – | 0.5 | 4 | 6.3 | B1 + 0.0125% DDBS + 0.05% SA (air entrainment) [3]: 6.1; Overall performance rating (second protocol rating) [5]: 4
CCc1ccc(S(=O)(=O)O)cc1 [4-Ethyl benzene sulfonic acid] | – | – | 1.3 | 3 | 6.2 | B1 + 0.0125% DDBS + 0.05% SA (air entrainment) [3]: 4.8; Overall performance rating (second protocol rating) [5]: 3
O=S(=O)(O)c1ccc(O)cc1 [4-Hydroxybenzenesulfonic acid] | – | – | 0.1 | 0 | 2.0 | B1 + 0.0125% DDBS + 0.05% SA (air entrainment) [3]: 2.1
O=C(O)c1ccc(O)cc1 [4-Hydroxybenzoic acid] | 2.1 | 2.4 | 1.0 | 0 | – | –
CC#N [Acetonitrile] | 2.3 | 2.5 | 0.5 | 0 | – | –
O=C(O)CCCCC(=O)O [Adipic acid] | 1.9 | 2.2 | 0.2 | 0 | – | –
CC1=CCC2CC1C2(C)C (stereo not drawn) [Alpha-Pinene] | 2.4 | 2.9 | 0.4 | 0 | – | –
Nc1ccccc1 [Aniline] | – | – | – | – | – | Overall performance rating (second protocol rating) [5]: 2
OCc1ccccc1 [Benzyl alcohol] | – | – | 0.6 | 3 | 5.4 | B1 + 0.0125% DDBS + 0.05% SA (air entrainment) [3]: 4.1; Overall performance rating (second protocol rating) [5]: 3
C[N+](C)(C)Cc1ccccc1.[OH-] [Benzyltrimethyl ammonium hydroxide] | – | – | – | 0 | 3.0 | B1 + 0.0125% DDBS + 0.05% SA (air entrainment) [3]: 2.3; PCA + 0.1% SA (level of air entrainment by the candidate sacrificial agent) (Portland cement paste (PCA), 0.1 wt % SA, no DDBS): 1.0
CCCC=O [Butyraldehyde] | 4.0 | 4.0 | 0.0 | 2 | – | Overall performance rating (second protocol rating): 2
OCCNCCO [Di-ethanolamine] | 2.7 | 2.6 | 0.3 | 0 | – | –
CC(O)CNCC(C)O (stereo not drawn) [Di-isopropanolamine] | – | – | – | – | – | B1 + 0.0125% DDBS + 0.05% SA (air entrainment): 4.6; B1 + 0.0125% DDBS + 0.1% SA (air entrainment): 5.5; Overall performance rating (second protocol rating): 3; PCA + 0.1% SA (level of air entrainment by the candidate sacrificial agent): 1.1; SA Rating (0-4): 3
COC(=O)CC(=O)OC [Dimethyl malonate] | 2.5 | 2.6 | 0.2 | 0 | – | –
COP(=O)([O-])OC.[Na+] [Dimethylphosphate Na] | 2.5 | 2.7 | 1.3 | 0 | – | –
C[S+](C)[O-] [Dimethylsulfoxide] | 2.5 | 3.1 | 0.0 | 0 | – | –
CNC(=O)NC [Dimethylurea] | – | – | 0.5 | 2 | 2.9 | Overall performance rating (second protocol rating) [5]: 2

Reference: patent US7892350B2, “Sacrificial agents for fly ash concrete” (Boral Material Technologies Inc., priority 2003, dated 2011)
